Results taken from ChEMBL document CHEMBL1149985, “Novel synthesis of nucleoside 5-polyphosphates” (Bioorg Med Chem Lett, 1996).

Each compound was assayed on Dictyostelium discoideum (assay: Compound was evaluated for nucleoside diphosphate kinase (NDP-kinase) activity).
Nc1ncnc2c1ncn2[C@@H]1O[C@H](COP(=O)(O)OP(=O)(O)OP(=O)(O)O)[C@@H](O)[C@H]1O gave a Relative activity of 100%.

These compounds were tested on Dictyostelium discoideum (assay: Compound was evaluated for nucleoside diphosphate kinase (NDP-kinase) activity relative to Adenosine triphosphate (100)).
Set-up: concentration or dose not given beside the values
For O=P(O)(O)OP(=O)(O)OP(=O)(O)OC[C@H]1O[C@@H](n2cnc3c(Cl)ncnc32)[C@H](O)[C@@H]1O, the Relative activity was 110%.
For O=P(O)(O)OP(=O)(O)OP(=O)(O)OC[C@H]1O[C@@H](n2cnc3cncnc32)[C@H](O)[C@@H]1O, the Relative activity was 130%.
Work on Nc1ncnc2c1nc(Cl)n2[C@@H]1O[C@H](COP(=O)(O)OP(=O)(O)OP(=O)(O)O)[C@@H](O)[C@H]1O yielded a Relative activity of 140%.
Nc1ncnc2c1ccn2[C@@H]1O[C@H](COP(=O)(O)OP(=O)(O)OP(=O)(O)O)[C@@H](O)[C@H]1O showed a Relative activity of 155%.
O=P(O)(O)OP(=O)(O)OP(=O)(O)OC[C@H]1O[C@@H](n2cnc3cc(Cl)c(Cl)cc32)[C@H](O)[C@@H]1O gave a Relative activity of 145%.
